Experimental data from US12264170B2, “Antimicrobial organosilanes” (TOPIKOS SCIENTIFIC, INC., priority 2019, dated 2025).

Columns and labels:
[1] = tested on: Pseudomonas aeruginosa ATCC 27853; test: MBC/MFC determination (Example 32); type: cell-based; conditions: P. aeruginosa ATCC 27853; plated after 18 to 20 hours incubation; two values given
Method: (§1) 10 μL of liquid from each test condition was plated on the appropriate agar media for each test strain. Except for C. jejuni, all other strains were plated for MBC/MFC after 18 to 20 hours incubation, or until growth in growth control wells were visually observed. MBC for C. jejuni was plated 48 hours after incubation of the 96-well plate. Once the liquid from the 96-well plate has been allowed to air dry in a biosafety cabinet, the agar plates were incubated under the appropriate conditions and colony formation was assessed. MBC/MFC is defined as the lowest concentration of a compound in which no colonies were recovered.

[2] = tested on: Pseudomonas aeruginosa Eurofins 1674623; test: MBC/MFC determination (Example 32); type: cell-based; conditions: P. aeruginosa Eurofins 1674623; plated after 18 to 20 hours incubation; two values given
Method: as §1

Candida auris CDC 0385 [3] = test: MBC/MFC determination (Example 32); type: cell-based; conditions: C. auris CDC 0385; plated after 18 to 20 hours incubation or until growth in control wells; two values given
Method: as §1

[4] = tested on: Pseudomonas aeruginosa CDC 0248; test: MBC/MFC determination (Example 32); type: cell-based; conditions: P. aeruginosa CDC 0248; plated after 18 to 20 hours incubation; two values given
Method: as §1

[5] = tested on: Streptococcus pyogenes Eurofins 2065755; test: MBC/MFC determination (Example 32); type: cell-based; conditions: S. pyogenes Eurofins 2065755; plated after 18 to 20 hours incubation; two values given
Method: as §1

[6] = tested on: Candida albicans ATCC 90028; test: MBC/MFC determination (Example 32); type: cell-based; conditions: C. albicans ATCC 90028; plated after 18 to 20 hours incubation or until growth in control wells; two values given
Method: as §1

[7] = tested on: Acinetobacter baumannii Eurofins 1674627; test: MBC/MFC determination (Example 32); type: cell-based; conditions: A. baumannii Eurofins 1674627; plated after 18 to 20 hours incubation; two values given
Method: as §1

[8] = tested on: Campylobacter jejuni CDC 0413; test: MBC/MFC determination (Example 32); type: cell-based; conditions: C. jejuni CDC 0413; plated 48 hours after incubation; two values given
Method: as §1

[9] = tested on: Pseudomonas aeruginosa ATCC 27853; test: MIC microdilution assay (Example 32); type: cell-based; conditions: P. aeruginosa ATCC 27853 (quality control); CAMHB; 35±2° C. 18 to 20 hours; two values given
Method: (§2) Strain IDs starting with “ATCC” were acquired from the American Type Culture Collection (Manassas, VA), strain IDs starting with “Eurofins” were acquired from Eurofins (Herndon, VA), while strain IDs starting with “CDC” were acquired from the Centers for Disease Control and Prevention (Atlanta, GA). All strains were maintained as −80° C. frozen glycerol stocks. S. aureus and P. aeruginosa were grown overnight on Tryptic Soy Agar (TSA) plates at 35±2° C., ambient atmosphere, while S. pyogenes was grown overnight on TSA+5% defibrinated sheep blood at 35±2° C., 5% CO2. C. jejuni was grown for 48 hours on TSA+5% defibrinated sheep blood at 35±2° C., in a microaerophilic environment generated by CampyGen sachet. All fungal species (i.e. C. albicans and C. auris) were grown overnight on Sabouraud Dextrose Agar (SDA) plates at 35±2° C., ambient atmosphere.
(§3) Test article Compound 1 (batch #7G30A9.203) was stored at 4° C. The antibiotic Tobramycin and antifungal Amphotericin B were used as quality control (QC) compounds for the MIC assay. Stock solutions of 3.2 mg/mL Tobramycin (Sigma-Aldrich, cat #T1783-500MG) and 3.2 mg/mL Amphotericin B (CP Lab Chemicals, cat #TOK-A007-1G) were prepared in sterile ultrapure water.
(§4) For bacteria strains, a few colonies of each strain were collected with a sterile swab and used to make a McFarland 0.5 standard solution (approximately 1×10^8 CFU/mL) in sterile PBS. The McFarland was then diluted 1:180 in Cation Adjusted Muller-Hinton Broth (CAMHB) for S. aureus and P. aeruginosa. S. pyogenes McFarland was diluted 1:180 in CAMHB+5% defibrinated sheep blood, while C. jejuni McFarland was diluted 1:180 in CAMHB+5% laked horse blood. 90 μL of this inoculum was combined with 10 μL of the 10× test article in a 96-well plate for a final concentration of 1×.
(§5) Except for C. jejuni, all bacterial-strain MIC 96-well plates were incubated at 35±2° C. for 18 to 20 hours, ambient atmosphere. C. jejuni was incubated at 35±2° C. for 48 hours, under microaerophilic condition. All Candida MIC 96-well plates were incubated at 35±2° C. for 24 to 48 hours, ambient atmosphere, until growth in control wells were observed. After incubation, the 96-well plates were examined visually and on a spectrophotometer at absorbance OD650. MIC is defined as the lowest concentration of a compound in which no visible growth is observed.

[10] = tested on: Pseudomonas aeruginosa Eurofins 1674623; test: MIC microdilution assay (Example 32); type: cell-based; conditions: P. aeruginosa Eurofins 1674623; CAMHB; 35±2° C. 18 to 20 hours; two values given
Method: as §2, §3, §4, §5

[11] = tested on: Pseudomonas aeruginosa CDC 0248; test: MIC microdilution assay (Example 32); type: cell-based; conditions: P. aeruginosa CDC 0248; CAMHB; 35±2° C. 18 to 20 hours; two values given
Method: as §2, §3, §4, §5

[12] = tested on: Streptococcus pyogenes Eurofins 2065755; test: MIC microdilution assay (Example 32); type: cell-based; conditions: S. pyogenes Eurofins 2065755; CAMHB+5% defibrinated sheep blood; 35±2° C. 18 to 20 hours; two values given
Method: as §2, §3, §4, §5

Candida auris CDC 0385 [13] = test: MIC microdilution assay (Example 32); type: cell-based; conditions: C. auris CDC 0385; RPMI media; 35±2° C. 24 to 48 hours; two values given
Method: as §2, §3, §4
(§6) For the yeasts C. albicans and C. auris, a McFarland 0.5 standard solution in sterile PBS was similarly prepared (approximately 1×10^6 CFU/mL) and was subsequently diluted 1:180 in RPMI 1640 media buffered with 0.165 M MOPS at pH 7.0 (herein referred to as “RPMI media”). 90 μL of the Candida inoculum was combined with 10 μL of the 10× test article in a 96-well plate for a final concentration of 1×.
as §5

[14] = tested on: Candida albicans ATCC 90028; test: MIC microdilution assay (Example 32); type: cell-based; conditions: C. albicans ATCC 90028 (quality control); RPMI media; 35±2° C. 24 to 48 hours; two values given
Method: as §2, §3, §4, §6, §5

[15] = tested on: Proteus mirabilis and Pseudomonas aeruginosa; test: Treatment of ocular infection in a dog; type: in vivo; conditions: male bull dog, 2% aqueous solution 3 times per day; for examination of the eyes: infection in both eyes
Method: A male bull dog presented with an infection in both eyes which was cultured and tested positive for Proteus mirabilis and Pseudomonas aeruginosa. The dog was administered a 2% aqueous solution of Compound 1 at a rate of 3 times per day for 7 days. […] On day 6, the dog was reexamined. […] To verify, a swab of the eye was taken and cultured. The culture was negative for both Proteus mirabilis and Pseudomonas aeruginosa.

Staphylococcus aureus = test: Disk diffusion susceptibility test; type: cell-based; conditions: repeated experiment, FIG. 2
Aspergillus niger = test: Disk diffusion susceptibility test; type: cell-based
Candida albicans = test: Disk diffusion susceptibility test; type: cell-based
Fusarium oxysporum = test: Disk diffusion susceptibility test; type: cell-based
Mycoplasma pneumoniae = test: Disk diffusion susceptibility test; type: cell-based; conditions: repeated experiment, FIG. 2
Enterococcus faecalis = test: Disk diffusion susceptibility test; type: cell-based
[16] = 10 mg/mL, repeated experiment, FIG. 2
[17] = 100 mg/mL, repeated experiment, FIG. 2

CCCCCCCCCCCCCCCCCC[N+](C)(C)CCC[Si](OCC(CO)(CO)NCCS(=O)(=O)[O-])(OCC(CO)(CO)NCCS(=O)(=O)[O-])OCC(CO)(CO)NCCS(=O)(=O)O.[Cl-].[Na+].[Na+] [Compound 1]
no sign of infection: examination of the eyes ([15]; day 6)
32 µg/mL: MBC [8]
8 µg/mL: MBC [5] | MIC [12]
negative: culture of eye swab for Proteus mirabilis and Pseudomonas aeruginosa ([15]; swab at day 6)
>64 µg/mL: MBC [1] | MBC [2] | MBC [4] | MIC [9] | MIC [10] | MIC [11]
1 µg/mL: MBC [6] | MIC (Candida auris CDC 0385 [13]) | MIC [14]
signs of reduced infection: examination of the eyes ([15]; day 2)
complete inhibition: inhibition (zone of inhibition), disk diffusion (Staphylococcus aureus; 1 mg/mL) | inhibition (zone of inhibition), disk diffusion (Staphylococcus aureus; 10 mg/mL) | inhibition (zone of inhibition), disk diffusion (Staphylococcus aureus; 100 mg/mL) | inhibition (zone of inhibition), disk diffusion (Aspergillus niger; [16]) | inhibition (zone of inhibition), disk diffusion (Aspergillus niger; [17]) | inhibition (zone of inhibition), disk diffusion (Aspergillus niger; 1% aqueous solution, FIG. 1) | inhibition (zone of inhibition), disk diffusion (Aspergillus niger; 2% aqueous solution, FIG. 1) | inhibition (zone of inhibition), disk diffusion (Candida albicans; [16]) | inhibition (zone of inhibition), disk diffusion (Candida albicans; [17]) | inhibition (zone of inhibition), disk diffusion (Candida albicans; 1% aqueous solution, FIG. 1) | inhibition (zone of inhibition), disk diffusion (Candida albicans; 2% aqueous solution, FIG. 1) | inhibition (zone of inhibition), disk diffusion (Fusarium oxysporum; [16]) | inhibition (zone of inhibition), disk diffusion (Fusarium oxysporum; [17]) | inhibition (zone of inhibition), disk diffusion (Fusarium oxysporum; 1% aqueous solution, FIG. 1) | inhibition (zone of inhibition), disk diffusion (Fusarium oxysporum; 2% aqueous solution, FIG. 1) | inhibition (zone of inhibition), disk diffusion (Mycoplasma pneumoniae; 1 mg/mL) | inhibition (zone of inhibition), disk diffusion (Mycoplasma pneumoniae; 10 mg/mL) | inhibition (zone of inhibition), disk diffusion (Mycoplasma pneumoniae; 100 mg/mL) | inhibition (zone of inhibition), disk diffusion (Enterococcus faecalis; 1 mg/mL, repeated experiment, FIG. 2) | inhibition (zone of inhibition), disk diffusion (Enterococcus faecalis; [16]) | inhibition (zone of inhibition), disk diffusion (Enterococcus faecalis; [17]) | inhibition (zone of inhibition), disk diffusion (Enterococcus faecalis; 1% aqueous solution, FIG. 1) | inhibition (zone of inhibition), disk diffusion (Enterococcus faecalis; 2% aqueous solution, FIG. 1)
2 µg/mL: MBC (Candida auris CDC 0385 [3])
64 µg/mL: MBC [7]
